Experimental findings from patent publication US8492374B2, “Azaazulene compounds” (Industrial Technology Research Institute, priority 2009, dated 2013) are described below.

Assay [1] deals with MV4-11 (FLT3-ITD) cell line. The assay is described as follows: In vitro cell activity assay (MTT cell viability, 72 hours). The format is cell-based. The following applies: Homo sapiens, 72 hours at 37° C., 10,000 cells per well, read-out: IC50 against MV4-11. The procedure:
Human MV4-11 (FLT3-ITD) cell line was obtained from American Tissue Culture Collection (ATCC number: CRL-9591). The cell line was cultured with RPMI 1640 containing 10% fetal bovine serum, 1 mmol/L sodium pyruvate and 10 mmol/L HEPES (pH 7.4). The cell was grown and maintained in a humidified atmosphere at 37° C. and 5% carbon dioxide.
MV4-11 cell was plated in 96-well microtiter plates (10,000 cells per well) and serial dilutions of indicated compounds were added. At the end of the incubation period (72 hours at 37° C.), cell viability was determined by a tetrazolium dye, MTT (3-(4,5-dimethylthiazol-2-yl)-2,5-diphenyl tetrazolium bromide) (Promega, Madison, Wis.). The formazan crystals were dissolved by DMSO, and the absorbance at a wavelength of 600 nm was recorded using an ELISA plate reader. IC50 values were calculated using nonlinear regression and defined as the concentration needed for a 50% reduction in absorbance of treated versus untreated control cells.

For a further assay, the target named is T1, FLT-3 kinase (Homo sapiens, UniProt P36888).
T1 construct: human FLT-3 (Arg571-Ser993); GST (N); purchased Cell Signaling Technology HTScan FLT-3 Kinase Assay Kit; host or cells: baculovirus expression system
T1 sequence (P36888 571-993): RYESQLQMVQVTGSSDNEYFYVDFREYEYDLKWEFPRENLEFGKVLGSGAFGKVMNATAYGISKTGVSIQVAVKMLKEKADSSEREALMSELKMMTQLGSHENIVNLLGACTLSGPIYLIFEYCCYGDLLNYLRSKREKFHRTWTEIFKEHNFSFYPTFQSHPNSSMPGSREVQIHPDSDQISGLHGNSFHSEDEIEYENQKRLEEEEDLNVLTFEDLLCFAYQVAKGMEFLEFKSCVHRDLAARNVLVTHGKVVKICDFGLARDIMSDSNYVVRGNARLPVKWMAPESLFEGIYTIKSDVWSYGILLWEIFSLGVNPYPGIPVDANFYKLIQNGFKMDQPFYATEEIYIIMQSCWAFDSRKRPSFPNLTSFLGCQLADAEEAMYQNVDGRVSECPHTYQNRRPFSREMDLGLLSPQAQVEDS
The assay is described as follows: FLT-3 kinase DELFIA assay (HTScan FLT-3 Kinase Assay Kit). The format is biochemical. The following applies: 20 uM ATP; for inhibition at 0.1 µM: 0.1 uM compound; for inhibition at 1 µM: 1 uM compound. The procedure: Azaazulene Compounds of this invention were treated for their efficacy in inhibiting activities of FLT-3, c-KIT and KDR kinases by biochemical DELFIA (Dissociation Enhanced Lanthanide FIA) assays according to the procedure described below. The assays were conducted by, Division of Cell Engineering, Biomedical Engineering Research Laboratories, Industrial Technology Research Institute, Bldg. 53, 195, sec. 4, Chung Hsing Rd. Chutung, Hsinchu, Taiwan 310, R.O.C.
The FLT-3 assay was conducted following the protocol described in Protocol for HTScang FLT-3 Kinase Assay Kit (Cell Signaling Technology®).

The structures appear in SMILES notation.

Consider `O=c1[nH]c2cccccc-2c1-c1nc2cc(F)c(F)cc2[nH]1` [Compound B3], for which the IC50 in assay [1] was in the range of 1 to 5 µM.
On to `O=c1[nH]c2cccccc-2c1-c1nc2cc(Cl)cnc2[nH]1` [Compound B10], for which, at FLT-3 kinase, 0.1 µM produced 8.9% inhibition and the inhibition at 1 µM came to 20.3%. In assay [1], the IC50 is 1 to 5 µM.
Taken in the same sequence, the figures for `O=c1[nH]c2cccccc-2c1-c1cn2cccnc2n1` [Compound B12] were 4.5%, 1.6% and over 5 µM.
The matching figures for `O=c1[nH]c2cccccc-2c1-c1cn2ccc(Cl)cc2n1` [Compound B16]: 4.8%, 16.5% and over 5 µM.
At FLT-3 kinase, `O=c1[nH]c2cccccc-2c1-c1cn2cc(Br)ccc2n1` [Compound B17] gave an inhibition at 0.1 µM of 4.9% and an inhibition at 1 µM of 23.4%. In assay [1], the IC50 was in the range of 1 to 5 µM.
Turning to `O=c1[nH]c2cccccc-2c1-c1nc2cc3ccccc3cc2[nH]1` [Compound B18], on FLT-3 kinase, at 0.1 µM the inhibition was 16.4% and the inhibition at 1 µM worked out at 40.2%.
For `N#Cc1ccc2[nH]c(-c3c4cccccc-4[nH]c3=O)nc2c1` [Compound B19], at FLT-3 kinase, the inhibition at 0.1 µM stood at 14.7% and the inhibition at 1 µM was found to be 28.6%. Further, in assay [1], the IC50 was in the range of 1 to 5 µM.
On FLT-3 kinase, `CC(C)(C)OC(=O)Nc1ccc2[nH]c(-c3c4cccccc-4[nH]c3=O)nc2c1` [Compound B20] yielded an inhibition at 0.1 µM of 16.7% and an inhibition at 1 µM of 33.3%. Further, the 50% inhibitory concentration (IC50) in assay [1] fell in the range of 1 to 5 µM.
At FLT-3 kinase, `O=c1[nH]c2cccccc-2c1-c1nc2cc(N3CCNCC3)ccc2[nH]1` [Compound B22] yielded an inhibition at 0.1 µM of 29.1% and an inhibition at 1 µM of 83.9%. For the same compound, the IC50 in assay [1] turned out to be 0.0429 µM.
Taken in the same sequence, the figures for `O=c1[nH]c2cccccc-2c1-c1nc2cc(N3CCNCC3)ccc2n1CC(F)(F)F` [Compound B23] were 41.2%, 91.5% and 0.0344 µM.
Taken in the same sequence, the figures for `CC1CN(c2ccc3[nH]c(-c4c5cccccc-5[nH]c4=O)nc3c2)CC(C)N1` (centres unmarked) [Compound B24] were 19.1%, 71.5% and 0.075 µM.
Take `CN1CCN(c2ccc3[nH]c(-c4c5cccccc-5[nH]c4=O)nc3n2)CC1` [Compound B27]: the IC50 in assay [1] was 0.375 µM.
The same measure, in the same setting: with `CCN1CCN(c2ccc3[nH]c(-c4c5cccccc-5[nH]c4=O)nc3c2)CC1` [Compound B28] the figure was 0.0963 µM.
Take `CCN(CC)CCCCn1c2cccccc-2c(-c2nc3cc(N4CCN(C)CC4)ccc3[nH]2)c1=O` [Compound B32]: on FLT-3 kinase, the inhibition at 0.1 µM turned out to be 8% and 1 µM produced 8.1% inhibition. For the same compound, the IC50 in assay [1] lay in the range of 1 to 5 µM.
The matching figures for `CN(C)CCCN1CCN(c2ccc3[nH]c(-c4c5cccccc-5[nH]c4=O)nc3c2)CC1` [Compound B33]: 58.7%, 96.6% and 0.0542 µM.
Taken in the same sequence, the figures for `CCCCN(CCCC)CCN1CCN(c2ccc3[nH]c(-c4c5cccccc-5[nH]c4=O)nc3c2)CC1` [Compound B34] were 40.2%, 85.4% and 0.151 µM.
The matching figures for `CN1CCC(N2CCN(c3ccc4[nH]c(-c5c6cccccc-6[nH]c5=O)nc4c3)CC2)CC1` [Compound B35]: 42%, 86.7% and 0.159 µM.
On FLT-3 kinase, `O=c1[nH]c2cccccc-2c1-c1nc2cc(N3CCN(CCO)CC3)ccc2[nH]1` [Compound B36] returned an inhibition at 0.1 µM of 24.8% and an inhibition at 1 µM of 64%. Further, in assay [1], the IC50 is 0.151 µM.
The matching figures for `O=c1[nH]c2cccccc-2c1-c1nc2cc(N3CCN(CCF)CC3)ccc2[nH]1` [Compound B38]: 21.8%, 69.2% and 0.119 µM.
On FLT-3 kinase, `O=c1[nH]c2cccccc-2c1-c1nc2cc(N3CCN(CCCF)CC3)ccc2[nH]1` [Compound B39] showed an inhibition at 0.1 µM of 24.3% and an inhibition at 1 µM of 78.6%. Also, the IC50 in assay [1] is 0.0622 µM.
The matching figures for `O=c1[nH]c2cccccc-2c1-c1nc2cc(N3CCN(C[C@@H](O)CO)CC3)ccc2[nH]1` [Compound B40]: 38.2%, 88.1% and 0.0723 µM.
Taken in the same sequence, the figures for `O=c1[nH]c2cccccc-2c1-c1nc2cc(N3CCN(Cc4ccc5ccccc5c4)CC3)ccc2[nH]1` [Compound B43] were 33.5%, 67.2% and 1 to 5 µM.
The matching figures for `O=c1[nH]c2cccccc-2c1-c1nc2cc(N3CCN(Cc4ccccc4)CC3)ccc2[nH]1` [Compound B44]: 29%, 79.1% and 0.19 µM.
At FLT-3 kinase, `CN(C)c1ccc(CN2CCN(c3ccc4[nH]c(-c5c6cccccc-6[nH]c5=O)nc4c3)CC2)cc1` [Compound B45] registered an inhibition at 0.1 µM of 27.3% and an inhibition at 1 µM of 77%. In assay [1], the IC50 was 0.318 µM.
Taken in the same sequence, the figures for `O=c1[nH]c2cccccc-2c1-c1nc2cc(N3CCN(Cc4ccc(Br)o4)CC3)ccc2[nH]1` [Compound B46] were 27.4%, 79.2% and 0.314 µM.
Regarding `O=c1[nH]c2cccccc-2c1-c1nc2cc(N3CCN(Cc4ccncc4)CC3)ccc2[nH]1` [Compound B47], the IC50 in assay [1] stood at 0.3 µM.
In the case of `O=c1[nH]c2cccccc-2c1-c1nc2cc(N3CCN(Cc4cccnc4)CC3)ccc2[nH]1` [Compound B48], the half-maximal inhibitory concentration (IC50) in assay [1] is 0.148 µM.
At FLT-3 kinase, `O=c1[nH]c2cccccc-2c1-c1nc2cc(N3CCN(Cc4ccccn4)CC3)ccc2[nH]1` [Compound B49] came in with an inhibition at 0.1 µM of 21.9% and an inhibition at 1 µM of 72.2%. The concentration for half-maximal inhibition (IC50) in assay [1] stood at 0.249 µM.
At FLT-3 kinase, `CN1CCN(c2cc3nc(-c4c5cccccc-5[nH]c4=O)[nH]c3cc2F)CC1` [Compound B50] had an inhibition at 0.1 µM of 25.1% and an inhibition at 1 µM of 79.6%. Also, the IC50 in assay [1] was 0.0507 µM.
As to `CN1CCCN(c2c(F)cc3[nH]c(-c4c5cccccc-5[nH]c4=O)nc3c2F)CC1` [Compound B86], the IC50 in assay [1] is 0.253 µM.
On FLT-3 kinase, `O=c1[nH]c2cccccc-2c1-c1nc2cc(N3CCC(O)CC3)ccc2[nH]1` [Compound B107] displayed an inhibition at 0.1 µM of 42.5% and an inhibition at 1 µM of 92.9%.
On FLT-3 kinase, `CN(C)[C@@H]1CCN(c2ccc3[nH]c(-c4c5cccccc-5[nH]c4=O)nc3c2)C1` [Compound B110] came in with an inhibition at 0.1 µM of 36.5% and an inhibition at 1 µM of 84.9%.
The matching figures for `O=c1[nH]c2cccccc-2c1-c1nc2cc(-n3nccn3)ccc2[nH]1` [Compound B116]: 36.3% and 62.7%.
In the case of `O=C(Nc1ccccc1)Nc1ccc2[nH]c(-c3c4cccccc-4[nH]c3=O)nc2c1` [Compound B121], the IC50 in assay [1] is 0.1 to 0.5 µM.
The same measure, in the same setting: next, `O=C(Nc1ccc2[nH]c(-c3c4cccccc-4[nH]c3=O)nc2c1)Nc1c(Cl)cncc1Cl` [Compound B122]: over 5 µM.
The same measure, in the same setting: next, `CCc1cccc(C)c1NC(=O)Nc1ccc2[nH]c(-c3c4cccccc-4[nH]c3=O)nc2c1` [Compound B123]: 1 to 5 µM.
Still for that read-out and setting: next, `O=C(Nc1ccc2[nH]c(-c3c4cccccc-4[nH]c3=O)nc2c1)NC1CCCCC1` [Compound B124]: about 5 µM; `O=C(Nc1ccc2[nH]c(-c3c4cccccc-4[nH]c3=O)nc2c1)Nc1ccccc1F` [Compound B125]: 0.68 µM; `O=C(Nc1cccc(F)c1)Nc1ccc2[nH]c(-c3c4cccccc-4[nH]c3=O)nc2c1` [Compound B126]: over 5 µM.
`O=C(Nc1ccc(F)cc1)Nc1ccc2[nH]c(-c3c4cccccc-4[nH]c3=O)nc2c1` [Compound B127]: the half-maximal inhibitory concentration (IC50) in assay [1] is about 1 µM.
The same measure, in the same setting: with `O=C(Nc1ccc2[nH]c(-c3c4cccccc-4[nH]c3=O)nc2c1)Nc1ccc(F)cc1F` [Compound B128] the figure was 1 to 5 µM.
Still for that read-out and setting: next, `O=C(Nc1ccc2[nH]c(-c3c4cccccc-4[nH]c3=O)nc2c1)Nc1c(F)cccc1F` [Compound B129]: over 5 µM.
